This is an account of results in a melting point compilation (Tetko et al.).

The compound `CC(O)Cc1ccc(Br)c(F)c1` (centres undefined) returned a melting point of 36 to 38 °C.

In turn, `Nc1cc(-c2ccc(OC(F)F)cc2)no1` returned a melting point of 88 to 90 °C.

On to `Cc1ccc(C)n1CC(=O)O`, for which the melting point is 99 to 101 °C.

The compound `O=C(O)c1cc(NS(=O)(=O)c2ccc(Cl)c([N+](=O)[O-])c2)ccc1O` displayed a melting point of 239 to 241 °C.

For `Nc1cccc(C(=O)N2CCC(CO)CC2)c1`, the melting point was 155 to 157 °C.

On to `O=C(O)c1ccc(F)c(S(=O)(=O)Cc2ncon2)c1`, for which the melting point fell in the range of 169 to 171 °C.

In turn, `CC(Sc1ccccc1Cl)C(=O)O` (centres undefined) registered a melting point of 50 to 52 °C.

On to `COC(=O)c1c(N)cccc1F`, for which the melting point lay within 53 to 55 °C.

The compound `NC(C(=O)O)(c1cccc(F)c1)C(F)(F)F` (centres undefined) came in with a melting point of 131 to 133 °C.

As to `O=C(O)CCn1nnc2ccccc2c1=O`, the melting point fell in the range of 195 to 197 °C.

Compound `CC(C)(N)CNC(=O)OC(C)(C)C` came in with a melting point of 68 to 70 °C.

`CSCc1c(C(=O)O)oc2ccccc12` gave a melting point of 100 to 102 °C.

Turning to `CN1C(=O)CC(C(=O)O)C1c1ccc(C(F)(F)F)cc1` (centres undefined), the melting point lay in the range of 145 to 147 °C.

For the compound `NC(=O)c1ncon1`, the melting point lay within 156 to 158 °C.

Compound `CN(C)S(=O)(=O)c1cccc(NC(=S)NN)c1` had a melting point of 155 to 157 °C.

For `O=S(=O)(CCN1CCNCC1)c1ccc(Br)cc1`, the melting point was in the range of 99 to 101 °C.

On to `C=CCNC(=O)c1cccnc1Cl`, for which the melting point was 75 to 77 °C.

Consider `NS(=O)(=O)c1ccc2c(c1)CCN2`, for which the melting point lay in the range of 162 to 166 °C.

Compound `O=C(O)CCS(=O)(=O)Nc1ccccc1` returned a melting point of 127 to 129 °C.

Turning to `CC(C(=O)O)n1nnc(-c2ccccc2)n1` (centres undefined), the melting point fell in the range of 143 to 145 °C.

The compound `COCCOc1ccc(Cl)cc1S(=O)(=O)Cl` came in with a melting point of 38 to 40 °C.

The compound `Nc1cnccc1-n1ccnc1` registered a melting point of 134 to 136 °C.

For `CC(c1ccccc1)n1c(N)nc2ccccc21` (centres undefined), the melting point lay in the range of 124 to 126 °C.

In turn, `CCCCOc1ccc(C(C)=O)cc1OC` gave a melting point of 47 to 49 °C.

The compound `CC(C)C(Br)C(N)=O` (centres undefined) came in with a melting point of 131 to 133 °C.

Consider `COC(=O)C1CN(CC#N)CCO1` (centres undefined), for which the melting point lay within 79 to 81 °C.

In turn, `COC(=O)c1cc(C(=O)O)n(-c2ccccc2)n1` had a melting point of 161 to 163 °C.

Compound `COc1ccc(C(=O)c2ccc(C)cc2)cc1` gave a melting point of 88 to 90 °C.

For the compound `O=C(O)c1ccc(OC2CCC2)cc1`, the melting point lay in the range of 191 to 193 °C.

`Nc1cccc(Cl)c1Sc1ccccn1` registered a melting point of 87 to 89 °C.

As for `N#Cc1cccc(CS(=O)(=O)NN)c1`, the melting point was in the range of 139 to 141 °C.

Compound `Cc1[nH]ccc1C(=O)O` returned a melting point of 167 to 169 °C.

`Cc1cc(C)c(C)c(Oc2c(C#N)c(C)nn2C)c1` showed a melting point of 69 to 71 °C.

`Nc1ccc(N2CCSCC2)cc1` yielded a melting point of 109 to 111 °C.

`Nc1ccc(S(N)(=O)=O)cc1Cl` had a melting point of 156 to 158 °C.

Turning to `CC1CCN(S(=O)(=O)N2CCNCC2)CC1`, the melting point was 61 to 63 °C.

`CCOC(=O)C1CCCNC1=O` (centres undefined): the melting point was in the range of 80 to 82 °C.

`NC(=O)Cn1cnc([N+](=O)[O-])c1` returned a melting point of 153 to 155 °C.

Compound `O=C(O)C1CCCc2sccc21` (centres undefined) returned a melting point of 79 to 81 °C.

In turn, `COC(=O)c1coc(-c2cccc(C#N)c2)n1` gave a melting point of 183 to 185 °C.

Turning to `C#CCOc1ccccc1O`, the melting point is 48 to 50 °C.

With `CN(C)S(=O)(=O)c1cc(N)ccc1Cl`, the melting point lay in the range of 125 to 129 °C.

`CCc1csc(-n2cc(C(=O)O)cn2)n1` had a melting point of 159 to 161 °C.

`Cc1noc2ncc(C(=O)O)cc12`: the melting point is 229 to 231 °C.

With `Cc1nc(-c2cccs2)c(CC(=O)O)s1`, the melting point was 159 to 161 °C.

Regarding `Cc1sc(N)c(C(=O)O)c1C`, the melting point is 120 to 122 °C.

Compound `CN1C(=O)CCC(C(N)=O)C1c1cnn(C)c1` (centres undefined) had a melting point of 185 to 187 °C.

For the compound `Cc1ccc(NC(=O)C(=O)NN)cc1`, the melting point fell in the range of 204 to 206 °C.

`Fc1ccc2oc(Cl)nc2c1` registered a melting point of 33 to 35 °C.

As for `CC(=O)N1CC(C)CNc2ccccc21` (centres undefined), the melting point was 141 to 143 °C.

The compound `O=C1CCC2(CC1)NC(=O)NC2=O` had a melting point of 199 to 201 °C.

The compound `CCn1cc(N)c(=O)c(Br)c1` yielded a melting point of 116 to 118 °C.

Regarding `CC(C(=O)O)S(=O)(=O)Cc1ccc(Br)cc1` (centres undefined), the melting point fell in the range of 135 to 137 °C.

Compound `Nc1cccc(N2CCNC2=O)c1` yielded a melting point of 149 to 151 °C.

The compound `Nc1cc(C2CCCO2)no1` (centres undefined) registered a melting point of 68 to 70 °C.

For `CC(C)(C)OC(=O)Nc1cccc(O)c1`, the melting point lay in the range of 135 to 137 °C.

Turning to `CCn1cnnc1Nc1ccccc1`, the melting point lay within 125 to 127 °C.

As to `Cc1cc(Oc2ncccn2)ccc1N`, the melting point was in the range of 132 to 134 °C.

`CS(=O)(=O)Nc1ccc(Br)cc1Cl` yielded a melting point of 98 to 100 °C.

Compound `CC(=O)NC(C(=O)O)C1CCCC1` (centres undefined) yielded a melting point of 172 to 174 °C.

`O=C1c2ccccc2C(=O)N1CC1CO1` (centres undefined) showed a melting point of 98 to 100 °C.

Compound `Cc1nc(S)n(C2CCCCC2)c1C` yielded a melting point of 218 to 220 °C.

Regarding `O=S(=O)(CCCl)c1cccc(Br)c1`, the melting point was 63 to 65 °C.

Compound `Brc1ccc(NCc2ccsc2)cc1` yielded a melting point of 44 to 46 °C.

With `O=C(O)CC(=O)c1ccc(O)cc1`, the melting point was 89 to 91 °C.

With `O=C(O)CCCCNC(=O)c1ccc2[nH]nnc2c1`, the melting point was in the range of 189 to 191 °C.

Compound `OCc1cnc(-c2ccccc2)[nH]1` showed a melting point of 154 to 156 °C.

For `O=C(O)c1c(O)cc(F)cc1F`, the melting point fell in the range of 182 to 184 °C.

With `O=C(O)c1ccc(Cl)c(S(=O)(=O)N2CCCC2)c1`, the melting point fell in the range of 239 to 241 °C.

`NC(C(=O)O)c1ccccc1Br` (centres undefined) displayed a melting point of 199 to 201 °C.

For the compound `CCOC(=O)C(=O)c1c(-c2ccc(C)cc2)nc2ccccn12`, the melting point fell in the range of 116 to 118 °C.

The compound `CCc1cc(O)ncn1` had a melting point of 135 to 137 °C.

The compound `Cc1ccc(C(=O)NC=C(Cl)Cl)cc1` displayed a melting point of 96 to 98 °C.

Take `Nc1ccc(C(O)c2ccccc2)cc1[N+](=O)[O-]` (centres undefined): the melting point lay within 120 to 122 °C.

The compound `O=C(O)c1cccc2[nH]cnc12` yielded a melting point of 326 to 330 °C.

In turn, `CC(C)(C)OC(=O)N1CC(=O)NC2CNCCC21` (centres undefined) showed a melting point of 144 to 146 °C.

On to `Cc1cccc(OCC(=O)NN)c1`, for which the melting point is 109 to 111 °C.

As for `Nc1ccnc(Oc2ccccc2Br)c1`, the melting point was in the range of 108 to 110 °C.

In the case of `Nc1ccn(CCc2ccccn2)n1`, the melting point is 69 to 71 °C.

In the case of `Sc1nnc(CCCc2ccccc2)o1`, the melting point lay in the range of 53 to 55 °C.

As to `ClCc1cn2cccnc2n1`, the melting point lay in the range of 125 to 127 °C.

Compound `COc1cc(C=O)ccc1OCC(=O)N1CCCC1` gave a melting point of 117 to 119 °C.

Take `Cc1cc(=O)[nH]c(-c2ccnc(Cl)c2)n1`: the melting point lay in the range of 269 to 271 °C.

With `CC1CCCN(C(N)=S)C1` (centres undefined), the melting point was 103 to 105 °C.

In the case of `O=C1COc2cc(C(=O)O)ccc2N1`, the melting point fell in the range of 321 to 323 °C.

The compound `NC1=NS(=O)(=O)c2ccccc21` yielded a melting point of 279 to 281 °C.

As for `COc1ccccc1Oc1ccc(C(N)=S)cc1`, the melting point was in the range of 193 to 195 °C.

Regarding `O=C1C(Br)CCCN1c1ccc(OC(F)F)cc1` (centres undefined), the melting point is 72 to 74 °C.

Take `Cc1nnc(-c2ccc(Br)c(F)c2)o1`: the melting point is 138 to 140 °C.
